Results taken from patent US5235045A, “Non-azo naphthalimide dyes” (priority 1992, dated 1993).
Where two headings read alike, the source gives them in different places.

Key:
[1] = Binding kinetics of dye to synthetic vesicles (fluorescence increase)
Protocol: All of the vehicles used in these studies were prepared to have a final lipid, egg lecithin+cholesterol concentration of 10 mg/ml. Cholesterol concentrations were varied between 0 and 45 mol % by varying the lipid composition from which the vesicles were produced. The subject dyes were added in 10% aqueous isopropyl alcohol solutions to vesicle suspensions in water. The dyes are non-fluorescent in 10% aqueous isopropy alcohol, but are highly fluorescent in vesicles. The increase in fluorescence was monitored at an excitation wavelength of 460 nm and an emission wavelength of 519 nm. Fluorescence intensity was measured as a function of time, and fit to a standard first-order kinetic plot.

[2] = tested on: Human Herpes Simplex Virus Type I; experiment: Photoinduced inactivation of HSV-I, plaque assay (Table 11); type: cell-based; conditions: 420±5 nm, 20J/cm^2
[3] = tested on: Bovine Herpes Virus Type I; experiment: Photoinactivation of Bovine Herpes Virus Type I (CPE, TCID50); type: cell-based, Bovine Herpes Virus Type I (BHV-1); conditions: light or radiation study, 10J/cm^2; for killing at 0.035 µM / killing at 0.07 µM / killing at 0.14 µM / killing at 0.27 µM / killing at 0.54 µM / killing at 1.09 µM: read-out: % Inactivation; for killing at 0.07 µM / log reduction at 0.07 µM: 0.070 μM
Protocol: Bovine Herpes Virus Type I (BHV-1). Cell-free and serum-free virus (BHV-1 reference strain from Dr. M. L. Vickers, ADL SDSU) was purified by potassium tartrate gradient ultracentrifugation. Virus was then resuspended in minimal buffer. Compound VII was diluted with ethanol to a concentration of 5 mg/ml. The dye stock solution was prepared by sequentially adding the ethanolic dye solution to fetal bovine serum (FBS), and diluting the dye-FBS mixture with MEM to give 10% FBS in MEM, so that the final concentration of the compound was 500 ng/ml. All dilutions of the dye in the medium were made from this stock solution. Dye/virus mixtures were all prepared as 1:1 mixtures of virus and dye stock solution. The virus was incubated for 30 min at 37° C. prior to irradiation, and then irradiated using a xenon arc lamp to give 10J/cm^2 total irradiative flux. Photomodified virus was then incubated with the appropriate cells (fetal bovine lung - FBL - or MDBK) in 10% FBS in MEM for 1 hour. Then unbound virus was taken off, the cells were washed with Ca/Mg-free PBS, and the cells were then placed in 10% FBS-MEM. The cells were incubated for 24 hours at 37° C. in a 5% CO2 incubator. After 24 and 48 hours, the cells were assayed for cytophathic effect (CPE), and the results expressed in terms of using TCID50 units. The viral inactivation data are expressed in terms of % inactivation in Table 12.

[4] = tested on: H9 cells; experiment: Uptake into living H9 cells; type: cell-based, human; conditions: for rate constant for uptake: 10% fetal calf serum
Protocol: For measurement, the pellet was diluted in 3 ml PBS+0.1% CTAB immediately prior to fluorescence measurement. Fluorescence measurements were made using an excitation wavelength of 451 nm, and an emission wavelength of 526 nm.
The protocol used is as above in (1), modified as below for those experiments in the presence of colchicine: Colchicine (1 mg/ml) was added to H9 cells at 5×10^.ident. cells/ml, and incubated for 1 hour. The cells were centrifuged, fresh medium was added, and 1b (25 μM) was added. Samples were taken at 0, 2, and 4 hours.

[5] = tested on: Gramacidin D; experiment: Effects of 420 nm radiation on liposomal-bound Gramacidin D and DiEd6Br fluorescence; type: biochemical; conditions: 100 J/cm^2, 420 nm; for Tryptophan fluorescence ratio irradiated/unirradiated (IT/DT): 0 μM dye 91.23

CCCCCCNc1c(Br)cc2c3c(cccc13)C(=O)N(CCCCCC)C2=O [Compound VII, 3-bromo-4-(hexyl)amino-N-hexyl-1,8-naphthalimide]
rate constant for binding ([1]; 0 mol % cholesterol): 0.814 ± 0.005 × 10^-3 s^-1
rate constant for binding ([1]; 15 mol % cholesterol): 1.020 ± 0.005 × 10^-3 s^-1
rate constant for binding ([1]; 30 mol % cholesterol): 1.54 ± 0.02 × 10^-3 s^-1
rate constant for binding ([1]; 45 mol % cholesterol): 2.75 ± 0.01 × 10^-3 s^-1
Infectivity, Average ([2]; 0.078 μM): 37.5 PFU/ml
Infectivity, first PFU/ml column ([2]; 0.078 μM): 45 PFU/ml
Infectivity, second PFU/ml column ([2]; 0.078 μM): 30 PFU/ml
Infectivity, Average ([2]; 0.156 μM): 17.5 PFU/ml
Infectivity, first PFU/ml column ([2]; 0.156 μM): 20 PFU/ml
Infectivity, second PFU/ml column ([2]; 0.156 μM): 15 PFU/ml
Infectivity, Average ([2]; 0.312 μM): 7.5 PFU/ml
Infectivity, first PFU/ml column ([2]; 0.312 μM): 10 PFU/ml
Infectivity, second PFU/ml column ([2]; 0.312 μM): 5 PFU/ml
Infectivity, Average ([2]; 0.625 μM): 0 PFU/ml
Infectivity, first PFU/ml column ([2]; 0.625 μM): 0 PFU/ml
Infectivity, Average ([2]; 1.25 μM): 0 PFU/ml
Infectivity, first PFU/ml column ([2]; 1.25 μM): 0 PFU/ml
Infectivity, second PFU/ml column ([2]; 1.25 μM): 0 PFU/ml
Infectivity, Average ([2]; 2.5 μM): 0 PFU/ml
Infectivity, first PFU/ml column ([2]; 2.5 μM): 0 PFU/ml
Infectivity, second PFU/ml column ([2]; 2.5 μM): 0 PFU/ml
Infectivity, Average ([2]; 5 μM): 0 PFU/ml
Infectivity, first PFU/ml column ([2]; 5 μM): 0 PFU/ml
Infectivity, second PFU/ml column ([2]; 5 μM): 0 PFU/ml
Infectivity, Average ([2]; 10 μM): 0 PFU/ml
Infectivity, first PFU/ml column ([2]; 10 μM): 0 PFU/ml
Infectivity, second PFU/ml column ([2]; 10 μM): 0 PFU/ml
activity at 0.078 µM ([2]; Human alphaherpesvirus 1, light or radiation study, 0.078 μM, read-out: % Survival): 0.006%
log reduction at 0.078 µM ([2]; Human alphaherpesvirus 1, light or radiation study, 0.078 μM, read-out: log10 reduction): 4.2
activity at 0.156 µM ([2]; Human alphaherpesvirus 1, light or radiation study, 0.156 μM, read-out: % Survival): 0.0028%
log reduction at 0.156 µM ([2]; Human alphaherpesvirus 1, light or radiation study, 0.156 μM, read-out: log10 reduction): 4.5
activity at 0.312 µM ([2]; Human alphaherpesvirus 1, light or radiation study, 0.312 μM, read-out: % Survival): 0.0012%
log reduction at 0.312 µM ([2]; Human alphaherpesvirus 1, light or radiation study, 0.312 μM, read-out: log10 reduction): 4.9
activity at 0.625 µM ([2]; Human alphaherpesvirus 1, light or radiation study, 0.625 μM, read-out: % Survival): < 0.0002%
log reduction at 0.625 µM ([2]; Human alphaherpesvirus 1, light or radiation study, 0.625 μM, read-out: log10 reduction): > 5.7
activity at 1.25 µM ([2]; Human alphaherpesvirus 1, light or radiation study, 1.25 μM, read-out: % Survival): < 0.0002%
log reduction at 1.25 µM ([2]; Human alphaherpesvirus 1, light or radiation study, 1.25 μM, read-out: log10 reduction): > 5.7
activity at 2.5 µM ([2]; Human alphaherpesvirus 1, light or radiation study, 2.5 μM, read-out: % Survival): < 0.0002%
log reduction at 2.5 µM ([2]; Human alphaherpesvirus 1, light or radiation study, 2.5 μM, read-out: log10 reduction): > 5.7
activity at 5 µM ([2]; Human alphaherpesvirus 1, light or radiation study, 5 μM, read-out: % Survival): < 0.0002%
log reduction at 5 µM ([2]; Human alphaherpesvirus 1, light or radiation study, 5 μM, read-out: log10 reduction): > 5.7
activity at 10 µM ([2]; Human alphaherpesvirus 1, light or radiation study, 10 μM, read-out: % Survival): < 0.0002%
log reduction at 10 µM ([2]; Human alphaherpesvirus 1, light or radiation study, 10 μM, read-out: log10 reduction): > 5.7
killing at 0.035 µM ([3]; 24 h): 99.4%
log reduction at 0.035 µM ([3]; 24 h, read-out: log10 red.): 3.2
killing at 0.035 µM ([3]; 48 h): 89.9%
log reduction at 0.035 µM ([3]; 48 h, read-out: log10 red.): 0.95
killing at 0.07 µM ([3]; 24 h): 99.8%
log reduction at 0.07 µM ([3]; 24 h, read-out: log10 red.): 3.7
killing at 0.07 µM ([3]; 48 h): 98.7%
log reduction at 0.07 µM ([3]; 48 h, read-out: log10 red.): 2
killing at 0.14 µM ([3]; 24 h): > 100%
log reduction at 0.14 µM ([3]; 24 h, read-out: log10 red.): > 3.7
killing at 0.14 µM ([3]; 48 h): 99.4%
log reduction at 0.14 µM ([3]; 48 h, read-out: log10 red.): 3.2
killing at 0.27 µM ([3]; 24 h): > 100%
log reduction at 0.27 µM ([3]; 24 h, read-out: log10 red.): > 3.7
killing at 0.27 µM ([3]; 48 h): 99.4%
log reduction at 0.27 µM ([3]; 48 h, read-out: log10 red.): 3.2
killing at 0.54 µM ([3]; 0.54 μM, 24 h): > 100%
killing at 0.54 µM ([3]; 0.54 μM, 48 h): > 100%
log reduction at 0.54 µM ([3]; 0.54 μM, 48 h, read-out: log10 red.): > 3.7
log reduction at 1.09 µM ([3]; 24 h): > 3.7
killing at 1.09 µM ([3]; 24 h): > 100%
log reduction at 1.09 µM ([3]; 48 h): > 3.7
killing at 1.09 µM ([3]; 48 h): > 100%

CCCCCCNc1ccc2c3c(cccc13)C(=O)N(CCCCCC)C2=O [Compound 1b, 4-(hexyl)amino-N-hexyl-1,8-naphthalimide]
rate constant for uptake ([4]; 1 μM, 4° C.): 3.5 ± 0.6 × 10^-4 s^-1
rate constant for uptake ([4]; 1 μM, 37° C.): 3.6 ± 1.7 × 10^-4 s^-1
rate constant for uptake ([4]; 5 μM, 4° C.): 2.7 ± 1.0 × 10^-4 s^-1
rate constant for uptake ([4]; 5 μM, 37° C.): 3.3 ± 0.7 × 10^-4 s^-1
rate constant for uptake ([4]; 25 μM, 4° C.): 2.3 ± 0.9 × 10^-4 s^-1
rate constant for uptake ([4]; 25 μM, 37° C.): 2.5 ± 0.3 × 10^-4 s^-1
total uptake in presence of colchicine ([4]; 25 μM, colchicine pre-incubated 1 hour): decreased
slope of log/log plot of fluorescence vs. time, presence and absence of colchicine ([4]; after 2 hours, 25 μM): essentially the same slope

CCCCCCN1C(=O)c2cccc3c(NCCNC(=O)CCCCC(=O)NCCNc4c(Br)cc5c6c(cccc46)C(=O)N(CCCCCC)C5=O)c(Br)cc(c23)C1=O [Compound XLIV]
DiEd6Br fluorescence ratio irradiated/unirradiated (ID/DD) ([5]; 10 μM): 5.03%
Tryptophan fluorescence ratio irradiated/unirradiated (IT/DT) ([5]; 10 μM): 10.57%
DiEd6Br fluorescence ratio irradiated/unirradiated (ID/DD) ([5]; 20 μM): 9.24%
Tryptophan fluorescence ratio irradiated/unirradiated (IT/DT) ([5]; 20 μM): 10.77%
DiEd6Br fluorescence ratio irradiated/unirradiated (ID/DD) ([5]; 50 μM): 20.26%
Tryptophan fluorescence ratio irradiated/unirradiated (IT/DT) ([5]; 50 μM): 14.40%
